Here are results for three compounds from patent US20110034472A1, “Novel Compounds for Treatment of Cancer and Disorders Associated With Angiogenesis Function” (UNIVERSITY OF SOUTHERN CALIFORNIA, priority 2004, published 2011).

A word on the IC50: it is the concentration that inhibits the measured activity by half. By CC50 is commonly meant the concentration giving 50% cytotoxicity.

Series [1] has as its system PC3 prostate cancer cells. Nature of the series: MTT cytotoxicity assay, PC3. The conditions noted are these: Homo sapiens. It counts as cell-based. Here is the method: (§1) The sensitivity of a panel of seven human cancer cell lines to SC144 was assessed by MTT-assay. […] The sensitivity towards SC144 was time- and dose-dependent.
(§2) Cytotoxicity was assessed by a 3-(4,5-dimethylthiazol-2-yl)-2,5-diphenyltetrazolium bromide assay as previously described (Carmichael et al. (1987) Cancer Res. 47:936-42). Briefly, cells were seeded in 96-well microtiter plates (PC3 and DU145 at 5,000 cells/well and LNCaP at 10,000 cells/well; breast and ovarian cells at 4,000 cells/well) and allowed to attach. Cells were subsequently treated with a continuous exposure to the corresponding drug for 72 hours. A 3-(4,5-dimethylthiazol-2-yl)-2,5-diphenyltetrazolium bromide solution (at a final concentration of 0.5 mg/mL) was added to each well and cells were incubated for 4 hours at 37° C. After removal of the medium, DMSO was added and the absorbance was read at 570 nm. All assays were done in triplicate. The IC50 was then determined for each drug from a plot of log(drug concentration) versus percentage of cell kill.
A general note: Formazan colour is commonly taken as a measure of viable cells.

Series [2] concerns DU145 prostate cancer cells. Nature of the series: MTT cytotoxicity assay, DU145. In kind it is cell-based. The settings on record: Homo sapiens; for IC50: DU-145, 72 hours continuous exposure, read-out: IC50 values (mean ± SD). The protocol:
as §1, §2

In series [3] the test system is HEY ovarian cancer cells. Nature of the series: MTT cytotoxicity assay, HEY. In kind it is cell-based, human. The settings on record: Homo sapiens, HEY; for IC50: 72 hours continuous exposure, read-out: IC50 values (mean ± SD). The protocol: as §1, §2
The test system of series [4] is MCF-7 breast cancer cells. The experiment in a line: MTT cytotoxicity assay, MCF-7. It counts as cell-based, human. The settings on record: for IC50: MCF7, 72 hours continuous exposure, read-out: IC50 values (mean ± SD); for CC50: MTT-assay, read-out: CC50 values (mean ± SD). Here is the method:
as §1, §2

The subject of series [5] is MDA-MB-435 breast cancer cells. The experiment in a line: MTT cytotoxicity assay, MDA-MB-435. It counts as cell-based, human. The conditions noted are these: Homo sapiens. An outline of the steps: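 Breast cells were seeded at 4,000 cells/well, allowed to attach, then exposed continuously to drug for 72 h. MTT at 0.5 mg/mL final was added for 4 h at 37 °C, formazan dissolved in DMSO and absorbance read at 570 nm, in triplicate. IC50 came from log(concentration) versus percent cell kill.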

Series [6] deals with MDA-MB-468 breast cancer cells. Nature of the series: MTT cytotoxicity assay, MDA-MB-468. It counts as cell-based. The settings on record: Homo sapiens; for IC50: 72 hours continuous exposure, read-out: IC50 values (mean ± SD). The protocol:
as §1, §2

Series [7] concerns LNCaP prostate cancer cells. The experiment in a line: MTT cytotoxicity assay, LNCaP. In kind it is cell-based. The conditions noted are these: Homo sapiens. The protocol:
as §2
(§3) Cytotoxicity was assessed by a 3-(4,5-dimethylthiazol-2-yl)-2,5-diphenyltetrazolium bromide (MTT) assay as previously described.^9 Briefly, cells were seeded in 96-well microtiter plates and allowed to attach. Cells were subsequently treated with continuous exposure to the corresponding drug for 72 h. An MTT solution (at a final concentration of 0.5 mg/mL) was added to each well, and cells were incubated for 4 h at 37° C. After removal of the medium, DMSO was added and the absorbance was read at 570 nm. All assays were done in triplicate. The IC50 was then determined for each drug from a plot of log (drug concentration) versus percentage of cells killed.

Series [8] has as its system CEM or HEY cells. Nature of the series: Cytotoxicity of salicylhydrazides (Table 5). It counts as cell-based. The settings on record: Homo sapiens.
Description: Human prostate cancer cells (PC3, p53 null, AR−; DU145, p53 mutant, AR−; and LNCaP, p53 wild-type, AR+) and breast cancer cells (MCF-7, overexpressed wild-type p53, ER+; MDA-MB-468, p53 mutant, […]; and MDA-MB-435, p53 mutant, ER−) were obtained from American Type Cell Culture (Manassas, Va.). The human ovarian carcinoma cell line (HEY) naturally resistant to cisplatin (CDDP) was kindly provided by Dr. Dubeau (University of Southern California Norris Cancer Center; Buick et al. (1985) Cancer Res. 45:3668-76 and Hamaguchi et al. (1993) Cancer Res. 53:5225-32). The results with CEM cells were previously described (Neamati et al. (1998) J. Med. Chem. 41:3202-9). Cells were maintained as monolayer cultures in RPMI 1640 supplemented with 10% fetal bovine serum (Gemini-Bioproducts, Woodland, Calif.) and 2 mmol/L L-glutamine at 37° C. in a humidified atmosphere of 5% CO2. To remove the adherent cells from the flask for passaging and counting, cells were washed with PBS without calcium or magnesium, incubated with a small volume of 0.25% trypsin-EDTA solution (Sigma-Aldrich, St. Louis, Mo.) for 5 to 10 minutes, and washed with culture medium and centrifuged. All experiments were done using cells in exponential cell growth.
as §2

The subject of series [9] is MDA-MB-435 cells. Nature of the series: MTT assay, continuous drug exposure for 48 hours (Table 3). The conditions noted are these: for IC80: MDA-MB-435, read-out: CC80. In kind it is cell-based, human.
Series [10] concerns panel of seven human cancer cell lines. Nature of the series: MTT-assay, panel of seven human cancer cell lines. In kind it is cell-based. The conditions noted are these: read-out: CC50 dose range. The protocol:
as §1

Series [11] relates to HCT-116 colon cancer cells. Nature of the series: Sensitivity of various cancer cells to SC144, HCT-116. The conditions noted are these: Homo sapiens. In kind it is cell-based. An excerpt:
The studies were expanded to other cell lines. […] Subnanomolar to low nanomolar potency was also observed in HCT-116 and HT29 colon cancer cell lines (Table 2).

Series [12] deals with MDA-MB-435 xenografts. The experiment in a line: Nude mice xenograft model of human breast MDA-MB-435 cells. In kind it is in vivo. Here is the method:
FIG. 3. (A) is a schematic outline of tumor growth and dosing in xenograft models. […] Tumor growth was monitored for five weeks. Values represent the median tumor weight for each group.
After five-days of dosing, the drug treatment was discontinued and the animals were monitored bi-weekly for five weeks.
For statistical analysis, the % T/C value was calculated on the last day of dosing and is graphed for all of the treatment groups (FIG. 3C).
To evaluate the extent of tumor necrosis after drug treatment tumor samples were collected from control and treated mice on day 70.
For orientation: In xenograft studies the graft and the host belong to different species.

Series [13] relates to HCT 116 p53^+/+ colon cancer cells. The experiment in a line: MTT cytotoxicity assay, HCT 116 p53+/+. The conditions noted are these: Homo sapiens, 72 h. In kind it is cell-based, human.
Description: Human breast cancer cells MDA-MB-435 and colon cancer HT29, p53 mutant were purchased from the American Type Cell Culture (Manassas, Va.). The HCT116 P53^+/+ and HCT116 P53^−/− cells were kindly provided by Dr. Bert Vogelstein (Johns Hopkins Medical Institutions, Baltimore, Md.). Human prostate cancer cells, LNCaP, were kindly provided by Richard Cote (University of Southern California Keck School of Medicine). Cells were maintained as monolayer cultures in RPMI 1640 media supplemented with 10% fetal bovine serum (Gemini-Bioproducts, Woodland, Calif.) and 2 mmol/L L-glutamine at 37° C. in a humidified atmosphere of 5% CO2. To remove the adherent cells from the flask for passaging and counting, cells were washed with PBS without calcium or magnesium, incubated with a small volume of 0.25% trypsin-EDTA solution (Sigma-Aldrich, St. Louis, Mo.) for 5-10 min, and washed with culture medium and centrifuged. All experiments were performed using cells at exponential growth stage. Cells were routinely checked for mycoplasma contamination using a PCR-based assay (Stratagene, Cambridge, UK).
as §3

[14] abbreviates: PC-3, PC3 cells, read-out: IC50 value.
[15] abbreviates: PC3, 72 hours continuous exposure, read-out: IC50 values (mean ± SD).
Setting [16] is: 72 hours continuous exposure, read-out: IC50 values (mean ± SD).
[17] abbreviates: MTT-assay, read-out: CC50 values (mean ± SD).

Structures are written as SMILES. “Also recorded” adds a separate entry of the source. Like-named read-outs stand apart in the source and are kept apart here.

Consider `O=C(NNC(=O)c1ccccc1O)C1=CC2C=CC=CC2C=C1O` (stereo not drawn) [SC21], for which the IC50 worked out at 3200 ± 200 nM in series [1] (setting [14]); 3250 nM in [1] (setting [15]); 120 ± 50 nM in [2]; 400 ± 60 nM in [3]; 40 ± 7 nM in series [4] (Homo sapiens, MCF-7); 35 ± 7 nM in series [5] (setting [16]). Further, the figures for the IC50 in series [6], in series [7] (setting [16]) and in series [8] were 200 ± 2 nM, 200 ± 70 nM and 400 ± 60 nM, respectively.

`O=C(NNC(O)c1cc2ccccc2cc1O)c1cc2ccccc2cc1O` (stereo not drawn) [SC23]: the IC50 in [1] (setting [14]) amounted to 2000 ± 500 nM; in [1] (setting [15]), 2000 nM; in series [2], 50 ± 19 nM; in [3] it was 2350 nM; in [4] (Homo sapiens, MCF-7) it was 280 ± 35 nM; in [5] (setting [16]), 240 ± 28 nM. The IC50 in [6] worked out at 50 ± 14 nM; in series [7] (setting [16]), 850 ± 200 nM; in series [8], 2300 ± 200 nM. In series [9], the CC50 turned out to be 40 ± 7 nM. The IC80 in [9] (Homo sapiens) was determined as 100 ± 10 nM.

For `O=C(NNc1nc2cc(F)ccc2n2cccc12)c1cnccn1` [SC144, Pyrazine-2-carboxylic acid N′-(7-fluoro-pyrrolo[1,2-a]quinoxalin-4-yl)-hydrazide], the CC50 in series [1] (PC3, MTT-assay, read-out: CC50 values (mean ± SD)) amounted to 10000 ± 200 nM; in series [2] (DU-145, MTT-assay, read-out: CC50 values (mean ± SD)) it was 3000 ± 300 nM; in series [3] (setting [17]), 1000 ± 60 nM; in series [4] (Homo sapiens, MCF7, MCF-7), 1700 ± 300 nM; in series [4] (MCF-7), 2000 ± 300 nM; in series [5] (setting [17]), 4000 ± 1400 nM. For the same compound, the CC50 was 700 ± 100 nM in series [6] (setting [17]); 700 to 10000 nM in series [10]; 17 nM in series [11]; 4000 ± 1400 nM in [9] (Homo sapiens, MDA-MB-435). Moreover, the IC50 turned out to be 4000 ± 100 nM in [5] (MTT, 72 h, read-out: IC50); 400 ± 60 nM in series [7] (hLNCaP, MTT, 72 h, read-out: IC50); 600 ± 70 nM in series [13]. The IC80 in series [9] (Homo sapiens) came out at 10000 ± 10 nM. For the same compound, the “organ toxicity (H&E staining of kidney, liver, heart tissues)” value in series [12] (4 mg/kg) was “no damage in these organs; also recorded: does not exhibit organ toxicity”. This compound also displayed a reduced tumor growth in [12] (4 mg/kg daily i.p. for five days) of 60%. In addition, in series [12] (4 mg/kg, day 70, H&E staining), the “necrosis of tumor tissues” value is “greater than 80%”. Also, in series [12] (0.3, 0.8, 4 mg/kg daily i.p. five days), the “tolerability, drug-related deaths” value is “well tolerated and did not result in drug-related deaths”. The “body weight compared to vehicle control” value in series [12] (mouse, in vivo) is “no changes in body weight”.
